Assay results: patent publication US9242937B2, “Pharmaceutically active disubstituted pyridine derivatives” (Bayer Intellectual Property GmbH, priority 2011, dated 2016)

Tests used:
[1] = tested on: NF-kappaB reporter gene activation in HEK293 cells; assay: NF-kappaB reporter assay; format: cell-based; settings: Homo sapiens, pNFkBluc reporter, 20 ng/ml TNF alpha, 5 h, read-out: NF-kappaB activation (activity range), IC50
Method: Cells were maintained in RPMI cell culture medium+glutamine (PAN Biotech GmbH, Aidenbach, Germany) supplemented with 10% fetal calf serum (PAA Laboratories GmbH, Pasching, Austria) and grown at 37° C., 5% CO2. HEK293 cells grown to 50% confluence were transfected with the Amaxa® Cell Line Nucleofector® Kit V (Lonza, Basel, Switzerland, catalog # VCA-1003). Transfections were performed according to manufacturer's optimized protocol for transfection of HEK293 cells. In brief, 2×10^5 cells were transfected with 5 μg highly purified plasmid DNA. Cells were transfected with a NF-kappa B reporter plasmid (pNFkBluc), pTALluc for control, or pMAXGFP for transfection control. After transfection, cells were taken up in 500 μL RPMI1640 cell culture medium, incubated for 1 h at 37° C., and 4.5 ml DMEM without phenol red were added per transfection. Transfected cells were seeded in 96 well plates (Greiner Bio-One, Frickenhausen, Germany, catalog #655098) with 100 μL cell suspension per well and incubated for 48 h. To each well, 100 μL DMEM with 2× concentrated compound diluted from 10 mM DMSO stocks, or 100 μL DMEM with 0.4% DMSO for control wells, was added. The compounds of general formula (I) summarized in Table 6 were used in this assay. Cells were stimulated with 20 ng/ml TNF alpha, and plates were incubated for 5 h at 37° C./5% CO2. Cell culture supernatants were removed to leave 100 μl medium per well, followed by addition of 100 μl Bright Glo luciferase assay reagent (Promega, Madison, Wis., USA, catalog # E2620), and shaking for 5 minutes in the dark. Luminescence was measured with a Victor Photospectrometer (Perkin Elmer, Waltham, Mass., USA). IC50 values were calculated with the software Excel Fit (IDBS, Guildford, UK) from 2-fold dilution series comprising at least 10 concentrations in duplicates.

[2] = tested on: Hela cells; assay: Cell viability assay, Hela cells; format: cell-based; settings: Homo sapiens, 72 h, Cell Titer Glo, read-out: Cell Viability - Hela cells (activity range), IC50
Method: Hela- or MDAMB468-Cells were maintained in RPMI 1640 or McCoy's 5A cell culture medium+glutamine (PAN Biotech GmbH, Aidenbach, Germany; order no. P04-22100; P04-05500) supplemented with 10% fetal calf serum “Gold” (PAA Laboratories GmbH, Pasching, Austria; order no. A15-151) and grown at 37° C., 5% CO2. For the cell viability assay, cells were seeded with a density of 400 (Hela cells, DSMZ Braunschweig order no. ACC57) or 800 (MDAMB468 cells, ATCC order no. HTB-132) per well in 25 μL in 384-well plates (Greiner Bio-One, Frickenhausen, Germany; order no. 781080). After overnight incubation at 37° C./5% CO2, 25 nL or 75 nL compound were added to each sample well by using BIOMEK FXP Laboratory Automation Workstation (Beckman Coulter, USA). Wells with cells and 0.1% or 0.3% DMSO in culture medium were used as positive controls, wells with cells and 10 μM staurosporine in culture medium were used as negative controls. The cells were incubated with the compounds for 72 h at 37° C./5% CO2. For measurement of cell viability 25 μL Cell Titer Glo reagent (Promega, Madison, USA; order no. G7573), 1:2 diluted with cell culture medium, was added to each well. The 384 well-plates were placed for 2 min on a orbital microplate shaker and incubated for further 10 min at room temperature to stabilize the luminescence signal. Luminescence was measured by Envision Plate Reader (Perkin Elmer, USA). IC50 values were calculated with the software Excel Fit (IDBS, Guildford, UK) from 3-fold dilution series comprising at least 8 concentrations in duplicates.

IC50 [2] [µM]	Compound	IC50 [1] [µM]
1 to 10	COc1cc(F)ccc1-c1ccnc(Nc2cccc(CS(N)(=O)=O)c2)c1 [Compound G1, [3-((4-(4-Fluoro-2-methoxyphenyl)pyridin-2-yl)amino)phenyl]-methanesulfonamide]	0.1 to 1
	COc1ccccc1-c1ccnc(Nc2cccc([N+](=O)[O-])c2)c1 [Compound C1, 4-(2-Methoxyphenyl)-N-(3-nitrophenyl)pyridin-2-amine]	1 to 10
> 10	CCCNS(=O)(=O)Cc1cccc(Nc2cc(-c3ccc(F)cc3OC)ccn2)c1 [Compound K1, 1-[3-((4-(4-Fluoro-2-methoxyphenyl)pyridin-2-yl)amino)phenyl]-N-propylmethanesulfonamide]	
> 10	COc1ccccc1-c1ccnc(Nc2ccc(S(N)(=O)=O)cc2)c1 [Compound E1, 4-[(4-(2-Methoxyphenyl)pyridin-2-yl)amino]benzenesulfonamide]	1 to 10
1 to 10	COc1ccccc1-c1ccnc(Nc2cccc(S(C)(=O)=O)c2)c1 [Compound F1, 4-(2-Methoxyphenyl)-N-(3-(methylsulfonyl)phenyl)pyridin-2-amine]	1 to 10
1 to 10	COc1cc(F)ccc1-c1ccnc(Nc2cccc(NS(C)(=O)=O)c2)c1 [Compound J1, N-[3-((4-(4-Fluoro-2-methoxyphenyl)pyridin-2-yl)amino)phenyl]-methanesulfonamide]	
> 10	COc1cc(F)ccc1-c1ccnc(Nc2cccc(NC(C)=O)c2)c1 [Compound J2, N-[3-((4-(4-Fluoro-2-methoxyphenyl)pyridin-2-yl)amino)phenyl]-acetamide]	
	COc1ccccc1-c1ccnc(Nc2ccccc2)c1 [Compound B1, 4-(2-Methoxyphenyl)-N-phenylpyridin-2-amine]	> 10
0.1 to 1	COc1ccccc1-c1ccnc(Nc2cccc(S(N)(=O)=O)c2)c1 [Compound D1, 3-[(4-(2-Methoxyphenyl)pyridin-2-yl)amino]benzenesulfonamide]	0.1 to 1
> 10	COc1cc(F)ccc1-c1ccnc(Nc2cccc(CS(=O)(=O)N(C)C)c2)c1 [Compound G3, 1-[3-((4-(4-Fluoro-2-methoxyphenyl)pyridin-2-yl)amino)phenyl]-N,N-dimethylmethanesulfonamide]	
